Laboratory results: patent publication US8436049B2, “Uses of pentamidine and related compounds” (State of Oregon Acting By and Through the State Board of …, priority 2008, dated 2013)
Starred links: 1 amine or outer side, 2 acyl side, 3 side chain; linkers in the order of their positions; H or OH if unused. Positions of bridges follow the written chain, without caps; N, C: chain ends. Non-standard residues stand in square brackets, D forms with d. Residues, ends and D or L forms follow the SMILES beside them. Chains are numbered I, II in the order given. Actinocin(9to1) = Cc1c2oc3c(C)ccc(C(=O)[*:1])c3nc-2c(C(=O)[*:2])c(N)c1=O; NMeV = CN[C@H](C(=O)O)C(C)C; Sar = CNCC(=O)O

Tests used:
MBNL-CUG RNA complex = molecular target: T1, MBNL-CUG RNA complex (Homo sapiens, UniProt Q9NR56); assay: Gel shift assay, disruption of MBNL binding to short CUG repeat RNA; settings: for Disruption of the MBNL-CUG interaction: gel shift screen, increasing amounts of small molecule
T1 construct: Both the full length MBNL and MBNL (1-260) constructs were cloned using BamHI and NotI restriction sites; GST (N, cleaved yes); made in house; host or cells: E. coli BL21-Star
T1 sequence (Q9NR56 1-382 isoform Q9NR56-5): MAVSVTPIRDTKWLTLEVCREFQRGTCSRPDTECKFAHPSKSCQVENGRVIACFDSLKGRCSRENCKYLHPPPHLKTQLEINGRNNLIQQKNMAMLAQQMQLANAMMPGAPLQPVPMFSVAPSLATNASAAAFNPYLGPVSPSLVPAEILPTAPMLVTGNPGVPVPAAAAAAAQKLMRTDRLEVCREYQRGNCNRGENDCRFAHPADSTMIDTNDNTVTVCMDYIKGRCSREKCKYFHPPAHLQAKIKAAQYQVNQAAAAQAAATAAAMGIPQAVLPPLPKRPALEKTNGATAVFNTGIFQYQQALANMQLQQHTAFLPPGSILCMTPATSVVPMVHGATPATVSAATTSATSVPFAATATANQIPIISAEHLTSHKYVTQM
Experimental: MBNL1 (MBNL) was PCR amplified and was cloned into GST fusion vector pGEX-6P-1 (GE Healthcare, Piscataway, N.J.), using DNA encoding a MBNL isoform with amino acids 1-382). Both the full length MBNL and MBNL (1-260) constructs were cloned using BamHI and NotI restriction sites. Using BL21-Star expression cells (Invitrogen, Carlsbad, Calif.), protein expression was induced with 0.25 mM IPTG at an OD600 of about 0.5-1, for 3-4 hours at 37° C. Cells were lysed in 30 ml of buffer (500 mM NaCl, 25 mM Tris pH 7.5, 10 mM β-mercaptoethanol (BME) and 5% glycerol) using 1 mg/ml of lysozyme, followed by sonication (3×30 seconds). Cell extract was centrifuged for 15 minutes at 17,000 rpm, and lysate which contained GST-MBNL was collected. GST-MBNL was bound to GST affinity beads for 30 minutes at 4° C. […] The protein was then run over an anion exchange (Q) column. […] MBNL was collected in the column flow through, concentrated and dialyzed into storage buffer (30% glycerol, 300 mM NaCl, 20 mM Tris pH 7.5, 5 mM BME) and stored at −80° C. Aliquots were removed from −80° C. and temporarily placed at −20° C. until used for an experiment.
All RNA substrates that were radiolabeled were ordered from IDT DNA (Coralville, Iowa), and 5′ end-labeled using [γ-^32P]ATP. All radiolabeled RNAs were purified on 8% polyacrylamide denaturing gels.
Solutions for the protein-RNA binding experiments contained 125 mM NaCl, 5 mM MgCl2, 20 mM Tris (pH 7.5), 7.5% glycerol, 2 mg/ml bovine serum albumin, and 0.1 mg/ml heparin. Prior to incubation, RNA substrates were annealed by incubation at 95° C. for 2 minutes and then placed directly on ice for 20 minutes in 66 mM NaCl, 6.7 mM MgCl2, and 27 mM Tris (pH 7.5). Protein was then added to the RNA in the presence or absence of the small molecule. The binding reaction was carried out in a 10 μL volume and was incubated for 10 minutes at room temperature before 2-4 μL were loaded on a pre-chilled 4° C. gel. RNA and RNA-protein complexes were separated on 3% acrylamide (37.5:1), 0.3% agarose (low melting point), 0.5× Tris-Borate (TB) gels, run for approximately 2-3 hours at 4° C. at 25-50 volts. Gels were dried and autoradiographed. For the neomycin B and CUG8 gel shift, an 8% acrylamide (29:1), 0.5×TB gel was used and run for 3 hours at 4° C. at 175 volts. All small molecules were dissolved in either water or ethanol, according to the manufacturer's guidance for solubility.
(§1) For binding curves, gels were quantified using ImageQuant® software (Molecular Dynamics, Piscataway, N.J.). The percent RNA bound was determined by taking the ratio of RNA-protein complex to total RNA, per lane. Any counts in the well were discarded as it was unapparent if the RNA was bound by protein, small molecule or was in an aggregate. Binding curves were graphed using KaleidaGraph software (Synergy Software, Reading, Pa.). For the neomycin B and CUG8 gel shift, the apparent Kd was determined using Equation 1, where Y=fraction bound, m0=small molecule concentration, m1=total RNA concentration, and m2=Kd.
For determining the EC50, Equation 3 was used, where m0=small molecule concentration, m1=EC50, m2=Hill coefficient, and m3=fraction MBNL bound without small molecule present. Y=m3/[1+(m0/m1)^m2] Equation 3 Results

MBNL-cTNT interaction = molecular target: T2, MBNL-cTNT interaction (Homo sapiens, UniProt Q9NR56); assay: Gel shift assay, disruption of MBNL binding to cTNT pre-mRNA site; settings: read-out: EC50 for disruption of MBNL binding to cTNT target construct
T2 construct: Both the full length MBNL and MBNL (1-260) constructs were cloned using BamHI and NotI restriction sites; GST (N, cleaved yes); made in house; host or cells: E. coli BL21-Star
T2 sequence (Q9NR56 1-382 isoform Q9NR56-5): T1 sequence (Q9NR56 1-382 isoform Q9NR56-5)
Experimental: Solutions for the protein-RNA binding experiments contained 125 mM NaCl, 5 mM MgCl2, 20 mM Tris (pH 7.5), 7.5% glycerol, 2 mg/ml bovine serum albumin, and 0.1 mg/ml heparin. Prior to incubation, RNA substrates were annealed by incubation at 95° C. for 2 minutes and then placed directly on ice for 20 minutes in 66 mM NaCl, 6.7 mM MgCl2, and 27 mM Tris (pH 7.5). Protein was then added to the RNA in the presence or absence of the small molecule. The binding reaction was carried out in a 10 μL volume and was incubated for 10 minutes at room temperature before 2-4 μL were loaded on a pre-chilled 4° C. gel. […]
as §1, with “Any counts in the well were discarded as it was unapparent if the RNA was bound by protein, small molecule or was in an aggregate.” left out, “m2=Kd. […]” for “m2=Kd.”
Pentamidine has been shown previously to bind to other RNAs and DNAs (Zhang et al., RNA 6:937-951, 2000); therefore, we determined pentamidine binding to an endogenous target of MBNL. […]

[1] = system: cTNT splicing reporter in HeLa cells; assay: cTNT splicing reporter (exon 5 inclusion) in HeLa cells with or without CUG960 plasmid; assay type: cell-based; settings: presence of the CUG960 construct
Experimental: HeLa cells were grown in monolayers in DMEM with GlutaMAX™ (Gibco, Carlsbad, Calif.) and supplemented with 10% fetal bovine serum. Approximately 2.0 (±0.2)×10^5 cells were plated in 6 well plates and transfected 18-20 hours later at 70-90% confluency. 1 μg of plasmid was transfected into each well of cells, using 5 μL of […] (Invitrogen) according to the manufacturer's protocols. For co-transfection, 1 μg of total plasmid was transfected, at 500 ng of each construct. Test compounds were added 4 hours after transfection, when the media was changed. Cells were harvested 18-22 hours after transfection using TrypLE™ reagent (Gibco).
Immediately following harvesting, RNA was isolated from the cell pellets using an RNeasy® kit (Qiagen, Valencia, Calif.). 500 ng of isolated RNA was DNased with RQI DNase (Promega, Madison, Wis.) according to manufacture's protocol. 100 ng of DNAsed RNA was reverse transcribed with Superscript® II (Invitrogen, Carlsbad, Calif.) and a cTNT-specific reverse primer according to manufacturer's protocols. 30 ng of the reverse transcription reaction was subjected to 22-25 rounds of PCR amplification using cTNT specific primers spiked with a forward primer 5′ end-labeled with [γ-^32P]ATP. Similar methods were used to reverse transcribe and amplify IR and PLEKHH2. […] The resulting PCR products were run on a 6% (19:1) polyacrylamide denaturing gel. The gel was subsequently autoradiographed and quantitation of the radioactive bands was performed using ImageQuant® software.
The following primer pairs were used. For the cTNT minigene, the forward primer was […] (SEQ ID NO: 1), and the reverse primer was […] (SEQ ID NO: 2). For the IR minigene, the forward primer was […] (SEQ ID NO: 3), and the reverse primer was […] (SEQ ID NO: 4). The underlined sections are for cloning purposes. For the PLEKHH2 minigene, the forward primer was […] (SEQ ID NO: 5), and the reverse primer was […] (SEQ ID NO: 6).
The ability of pentamidine to alter the splicing defects observed in a cell-based model for DM was tested. This was accomplished in a system using cells transformed with a plasmid expressing 960 CUG repeats where the expression of these CUG repeats causes splicing defects similar to those observed in DM cells and DM subjects (Savkur et al., Nature Genet. 29:40-47, 2001).

Structure (SMILES)	Disruption of the MBNL-CUG interaction (MBNL-CUG RNA complex)	EC50 (MBNL-cTNT interaction)	EC50 (MBNL-CUG RNA complex; gel shift, short CUG repeat RNA (CUG4), read-out: EC50 for disruption of MBNL binding to CUG repeat construct)	Concentration giving complete rescue of cTNT missplicing [1]
NC[C@@H]1O[C@H](O[C@H]2[C@@H](O)[C@H](O[C@@H]3[C@@H](O)[C@H](N)C[C@H](N)[C@H]3O[C@H]3O[C@H](CO)[C@@H](O)[C@H](O)[C@H]3N)O[C@@H]2CO)[C@H](N)[C@@H](O)[C@@H]1O [paromomycin]	did not disrupt the MBNL-CUG interaction at any concentration	–	–	–
NC[C@@H]1O[C@H](O[C@H]2[C@@H](O)[C@H](O[C@@H]3[C@@H](O)[C@H](N)C[C@H](N)[C@H]3O[C@H]3O[C@H](CN)[C@@H](O)[C@H](O)[C@H]3N)O[C@@H]2CO)[C@H](N)[C@@H](O)[C@@H]1O [neomycin B]	disrupt the MBNL-CUG interaction at micromolar concentrations	50 µM	110 µM	–
N=C(N)c1ccc(OCCCCCCCOc2ccc(C(=N)N)cc2)cc1 [heptamidine]	–	–	–	25 µM
Cc1c2oc3c(C)ccc(C(=O)N[C@@H]4C(=O)N[C@H](C(C)C)C(=O)N5CCC[C@H]5C(=O)N(C)CC(=O)N(C)[C@@H](C(C)C)C(=O)O[C@@H]4C)c3nc-2c(C(=O)N[C@@H]2C(=O)N[C@H](C(C)C)C(=O)N3CCC[C@H]3C(=O)N(C)CC(=O)N(C)[C@@H](C(C)C)C(=O)O[C@@H]2C)c(N)c1=O [actinomycin D] (I: T[dV]P[Sar][NMeV] / II: T[dV]P[Sar][NMeV]; ester I:1-I:C, II:1-II:C; linker I:N-II:N via Actinocin(9to1))	did not disrupt the MBNL-CUG interaction at any concentration	–	–	–
CN1C(=Cc2cc[n+](C)c3ccccc23)Sc2ccccc21 [thiazole orange]	disrupt the MBNL-CUG interaction at micromolar concentrations	–	–	–
